Assay results: PubChem BioAssay AID624323 (Sanford-Burnham Center for Chemical Genomics, 2012)
≈ marks a conversion by molar mass, not a printed value. Calls of active or inactive are those of the source. No rule for the calls is given here.

Test system: aqueous buffer solubility, pH 5.0/6.2/7.4
Assay: aqueous buffer solubility at three pH values, ADME assay, biophysical, set 2 (AID 624323)
Conditions: at 100 µM, stronger effect = higher value
[1] = measured here: solubility at pH 5.0
[2] = measured here: solubility at pH 6.2

SMILES: CC(C)C(=O)NC(c1ccco1)c1ccc2cccnc2c1O (centres undefined)
- solubility: 3.3 µg/mL (inactive) (≈ 10.6 µM)
- solubility [1]: 2.8 µg/mL (≈ 9.02 µM)
- solubility [2]: 2.7 µg/mL (≈ 8.7 µM)

SMILES: COc1ccccc1N(/N=C1\Sc2ccccc2C1=O)C(C)=O
- solubility: 2.4 µg/mL (inactive) (≈ 7.35 µM)
- solubility [1]: 2.4 µg/mL (≈ 7.35 µM)
- solubility [2]: 2.7 µg/mL (≈ 8.27 µM)

SMILES: Cc1cccc(-n2cnc3cc(C(=O)N4CCCCC4)ccc32)c1
- solubility: > 32 µg/mL
- solubility [1]: > 32 µg/mL
- solubility [2]: > 32 µg/mL

SMILES: O=c1c(O)c(-c2cc(O)c(O)c(O)c2)oc2cc(O)cc(O)c12
- solubility: 1.7 µg/mL (inactive) (≈ 5.34 µM)
- solubility [1]: 3.2 µg/mL (≈ 10.1 µM)
- solubility [2]: 5.3 µg/mL (≈ 16.7 µM)

SMILES: CCCN(CCC)CCNC(=O)C1CCN(Cc2nc(-c3ccc(Cl)cc3)oc2C)CC1
- solubility: > 46 µg/mL
- solubility [1]: > 46 µg/mL
- solubility [2]: > 46 µg/mL

SMILES: c1ccc(CC2CCN(c3ncnc4sccc34)CC2)cc1
- solubility: < 0.01 µg/mL (inactive)
- solubility [1]: < 0.01 µg/mL
- solubility [2]: 0.01 µg/mL (≈ 0.0323 µM)

SMILES: O=C(CCNS(=O)(=O)c1cccc2nsnc12)N1CCN(c2ccccn2)CC1
- solubility: > 43 µg/mL
- solubility [1]: 35.8 µg/mL (≈ 82.8 µM)
- solubility [2]: 35.5 µg/mL (≈ 82.1 µM)

SMILES: CC(=O)c1ccc(N2CCN(S(=O)(=O)c3ccc4c(c3)CC(=O)N4)CC2)cc1
- solubility: 3.5 µg/mL (inactive) (≈ 8.76 µM)
- solubility [1]: 3.2 µg/mL (≈ 8.01 µM)
- solubility [2]: 3.7 µg/mL (≈ 9.26 µM)

SMILES: COc1ccc(CSc2nc(C)cc(=O)[nH]2)cc1
- solubility: > 26 µg/mL
- solubility [1]: > 26 µg/mL
- solubility [2]: > 26 µg/mL

SMILES: Cc1cc(C)nc(-n2nc(C)c(Sc3ccc(F)cc3)c2N)n1
- solubility: 9.3 µg/mL (inactive) (≈ 28.2 µM)
- solubility [1]: 5.6 µg/mL (≈ 17 µM)
- solubility [2]: 8.6 µg/mL (≈ 26.1 µM)

SMILES: Cn1nnnc1Sc1ncnc2scc(-c3ccccc3)c12
- solubility: 3.5 µg/mL (inactive) (≈ 10.7 µM)
- solubility [1]: 2.9 µg/mL (≈ 8.88 µM)
- solubility [2]: 3.1 µg/mL (≈ 9.5 µM)

SMILES: Cc1ccc(NS(=O)(=O)c2ccc3c(c2)CCC(=O)N3)cc1C
- solubility: 27.1 µg/mL (≈ 82 µM)
- solubility [1]: 26.2 µg/mL (≈ 79.3 µM)
- solubility [2]: > 33 µg/mL

SMILES: O=c1[nH]c2c(s1)C(c1cccnc1)C1C3CCC(C3)C1S2 (centres undefined)
- solubility: 21.7 µg/mL (≈ 68.6 µM)
- solubility [1]: 24 µg/mL (≈ 75.8 µM)
- solubility [2]: 21.8 µg/mL (≈ 68.9 µM)

SMILES: CCc1oc2ccccc2c1C(=O)c1cc(Br)c(O)c(Br)c1
- solubility: > 42 µg/mL
- solubility [1]: 0.18 µg/mL (≈ 0.424 µM)
- solubility [2]: 26.1 µg/mL (≈ 61.5 µM)

SMILES: Cc1ccc(-n2c(N)c(C#N)c(-c3ccccc3)c(C#N)c2=O)cc1
- solubility: 0.84 µg/mL (inactive) (≈ 2.57 µM)
- solubility [1]: 0.79 µg/mL (≈ 2.42 µM)
- solubility [2]: 0.93 µg/mL (≈ 2.85 µM)

SMILES: O=C(COc1ccccc1Br)NCCc1nc2ccccc2[nH]1
- solubility: > 37 µg/mL
- solubility [1]: > 37 µg/mL
- solubility [2]: > 37 µg/mL

SMILES: COc1ccc(N(C(=O)CCl)C(C(=O)NCCc2ccccc2)c2cccs2)cc1Cl (centres undefined)
- solubility: 1.2 µg/mL (inactive) (≈ 2.51 µM)
- solubility [1]: 0.61 µg/mL (≈ 1.28 µM)
- solubility [2]: 0.86 µg/mL (≈ 1.8 µM)

SMILES: c1ccc(-c2nnc(N3CCOCC3)nc2-c2ccccc2)cc1
- solubility: 2.3 µg/mL (inactive) (≈ 7.22 µM)
- solubility [1]: 2 µg/mL (≈ 6.28 µM)
- solubility [2]: 1.8 µg/mL (≈ 5.65 µM)

SMILES: O=C(O)c1ccc(N2C(=O)/C(=C/c3ccc(-c4ccc([N+](=O)[O-])cc4)o3)C=C2c2ccccc2)cc1
- solubility: 0.79 µg/mL (inactive) (≈ 1.65 µM)
- solubility [1]: 0.59 µg/mL (≈ 1.23 µM)
- solubility [2]: 13.4 µg/mL (≈ 28 µM)

SMILES: COc1nc(-c2ccccc2)nnc1-c1ccccc1
- solubility: 0.38 µg/mL (inactive) (≈ 1.44 µM)
- solubility [1]: 1 µg/mL (≈ 3.8 µM)
- solubility [2]: 0.78 µg/mL (≈ 2.96 µM)

SMILES: COc1ccc(S(=O)(=O)N2CCN(S(=O)(=O)c3ccc4c(c3)OCCO4)CC2)cc1
- solubility: < 0.1 µg/mL (inactive)
- solubility [1]: 0.13 µg/mL (≈ 0.286 µM)
- solubility [2]: < 0.1 µg/mL

SMILES: Brc1cc2c(cc1C1Nc3ccccc3C3C=CCC31)OCO2 (centres undefined)
- solubility: < 0.01 µg/mL (inactive)
- solubility [1]: < 0.01 µg/mL
- solubility [2]: 0.04 µg/mL (≈ 0.108 µM)

SMILES: Cc1ccc(S(=O)(=O)NCc2ccc(C(=O)NCCN(Cc3ccccc3)C(C)C)cc2)cc1
- solubility: 19.6 µg/mL (≈ 40.9 µM)
- solubility [1]: > 47 µg/mL
- solubility [2]: 34.7 µg/mL (≈ 72.3 µM)

SMILES: N#C/C(=C\c1ccc([N+](=O)[O-])o1)c1nc2ccccc2[nH]1
- solubility: 0.14 µg/mL (inactive) (≈ 0.5 µM)
- solubility [1]: 0.08 µg/mL (≈ 0.285 µM)
- solubility [2]: 0.12 µg/mL (≈ 0.428 µM)

SMILES: O=C(O)c1ccccc1OCc1ccccc1Br
- solubility: > 30 µg/mL
- solubility [1]: > 30 µg/mL
- solubility [2]: > 30 µg/mL

SMILES: CN(C)c1oc(-c2ccc(OCc3ccc(Cl)cc3)cc2)nc1C#N
- solubility: 0.08 µg/mL (inactive) (≈ 0.226 µM)
- solubility [1]: 0.17 µg/mL (≈ 0.48 µM)
- solubility [2]: < 0.01 µg/mL

SMILES: COc1cc(NC(=O)c2cc(C3CC3)on2)c(OC)cc1Cl
- solubility: 0.06 µg/mL (inactive) (≈ 0.186 µM)
- solubility [1]: < 0.01 µg/mL
- solubility [2]: 0.05 µg/mL (≈ 0.155 µM)

SMILES: O=S1(=O)Nc2c(ccc3cccnc23)-c2ccccc21
- solubility: > 2.8 µg/mL (inactive)
- solubility [1]: 9.6 µg/mL (≈ 34 µM)
- solubility [2]: 13.6 µg/mL (≈ 48.2 µM)

SMILES: Cc1nc(SCc2nc3ccccc3[nH]2)c2oc3ccccc3c2n1
- solubility: 0.11 µg/mL (inactive) (≈ 0.318 µM)
- solubility [1]: 0.26 µg/mL (≈ 0.751 µM)
- solubility [2]: 0.22 µg/mL (≈ 0.635 µM)

SMILES: O=S(=O)(NC1CCCCC1N1CCOCC1)c1ccc(Cl)cc1 (centres undefined)
- solubility: 26.2 µg/mL (≈ 73 µM)
- solubility [1]: > 36 µg/mL
- solubility [2]: > 36 µg/mL

SMILES: O=c1c2ccccc2[se]n1-c1ccccc1
- solubility: 5.6 µg/mL (inactive) (≈ 20.4 µM)
- solubility [1]: 5 µg/mL (≈ 18.2 µM)
- solubility [2]: 6 µg/mL (≈ 21.9 µM)

SMILES: CCCc1cc(C(=O)N(C2CCCCC2)C2CCCCC2)no1
- solubility: 1.3 µg/mL (inactive) (≈ 4.08 µM)
- solubility [1]: 2.1 µg/mL (≈ 6.59 µM)
- solubility [2]: 2 µg/mL (≈ 6.28 µM)

SMILES: CCCc1nc2c(=O)n(C)c(=O)nc-2n(C)n1
- solubility: > 23 µg/mL
- solubility [1]: > 23 µg/mL
- solubility [2]: > 23 µg/mL
